Tests used:
[1] = Form A and Form B interconversion (competitive) slurries; format: physicochemical; settings: between 2° C. and 72° C.
Procedure: Relative thermodynamic stabilities of anhydrous/non-solvated Forms A and B were studied at 2-8° C., room temperature (RT) and at 71-72° C. via interconversion (competitive) slurries. In these slurries, a given solvent system was pre-saturated with compound 092 (Form A+minor Form B) at the stated temperature, and a portion of the liquid phase was filtered into a mixture of solids containing relatively equal amounts of Form A and Form B. Interconversion slurries at 2-8° C. and RT were allowed to stir for 22 days, while slurries at 71-72° C. stirred for shorter duration (2-4 days). […] The results are reported in table 13 below where: liquid phase for each slurry was pre-saturated using as-received Form A+minor Form B; solvent ratios are v/v; water activity values were calculated using UNIFAC calculator at RT; and times and temperatures are approximate.

[2] = Stable polymorph form screen (slurry experiments); format: physicochemical; settings: between 2° C. and 73° C.
Procedure: Slurry experiments were conducted to identify the stable form at various conditions. In these experiments, saturated solutions in various solvents containing excess undissolved solids (starting with Form A+minor Form B) were stirred for extended durations. Slurries at room temperature (RT) and 2-8° C. were typically conducted for approximately 2 weeks, while slurries at 72-73° C. were stirred for a shorter duration (1 day) to minimize the potential for decomposition. […] The results are shown in the table 12 where the time and temperatures are approximate.

CC1(NC(=O)c2cccc3nn(-c4cccnc4)cc23)CC1 [Form A, N-(1-methylcyclopropyl)-2-(3-pyridinyl)-2H-indazole 4-carboxamide]
relative thermodynamic stability of Forms A and B (competitive slurries) [1]: thermodynamically stable form | relative stability of polymorph forms (slurry screen) [2]: more stable than Form B

From patent publication US20250154124A1, “PROCESSES FOR THE PREPARATION OF N-(1-METHYLCYCLOPROPYL)-2-(3-PYRIDINYL)-2H-INDAZOLE-4-CARBOXAMIDE AND INTERMEDIATES THEREOF” (FMC CORPORATION, priority 2022, published 2025)
